Experiment [1] concerns the target T1, rat olfactory CNG channel subunit 1 (Rattus norvegicus, UniProt Q00195).
T1 sequence (Q00195 1-664): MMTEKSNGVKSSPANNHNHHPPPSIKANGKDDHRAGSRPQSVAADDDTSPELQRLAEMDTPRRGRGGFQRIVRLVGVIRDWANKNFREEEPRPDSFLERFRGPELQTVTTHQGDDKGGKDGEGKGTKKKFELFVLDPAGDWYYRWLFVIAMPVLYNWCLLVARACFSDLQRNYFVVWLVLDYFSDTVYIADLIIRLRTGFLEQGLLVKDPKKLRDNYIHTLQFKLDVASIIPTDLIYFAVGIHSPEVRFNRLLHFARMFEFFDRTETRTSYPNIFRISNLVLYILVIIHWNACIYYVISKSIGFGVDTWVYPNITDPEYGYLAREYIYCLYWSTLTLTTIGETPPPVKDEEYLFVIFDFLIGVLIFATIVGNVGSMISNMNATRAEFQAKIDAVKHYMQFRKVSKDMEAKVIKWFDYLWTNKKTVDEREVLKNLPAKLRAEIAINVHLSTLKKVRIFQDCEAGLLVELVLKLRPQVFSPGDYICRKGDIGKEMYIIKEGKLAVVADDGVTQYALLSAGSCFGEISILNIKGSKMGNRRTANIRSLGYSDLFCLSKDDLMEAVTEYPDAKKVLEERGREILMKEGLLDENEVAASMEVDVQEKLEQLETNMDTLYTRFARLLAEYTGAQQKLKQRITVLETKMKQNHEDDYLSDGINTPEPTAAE
In words: inside-out patch clamp, cGMP dose-response of current. The class given is cell-based. For orientation: In patch-clamp work, channel activity is measured electrically.

In experiment [2] the target is T1, rat olfactory CNG channel subunit 1. In words: inside-out patch clamp, oocytes, Michaelis-Menten fit of block. The class given is cell-based.

As a reminder, the EC50 is the midpoint of the concentration-response curve. Read a high EC50 as lower potency in that assay. Consider `Nc1nc2c(ncn2[C@@H]2O[C@@H]3COP(=O)(O)O[C@H]3[C@H]2O)c(=O)[nH]1` [cGMP], for which, in experiment [1], the concentration giving a half-maximal response (EC50) is 2.1 ± 0.12 µM. A word on the IC50: it is the concentration that gives 50% inhibition. The compound `CCCCNc1ccc(C(=O)OCCN(C)C)cc1` [tetracaine] had an IC50 in experiment [2] of 170 ± 22 µM.
